US10336730B2, “Substituted glycine derived FXIA inhibitors” (BRISTOL-MYERS SQUIBB COMPANY, priority 2015, dated 2019)

Molecular target: T1, purified human Factor XIa (Homo sapiens, UniProt P03951)
T1 construct: purchased Haematologic Technologies
Assay: Factor XIa enzyme inhibition assay (chromogenic substrate S-2366), Ki
Format: biochemical
Conditions: substrate S-2366, pH 7.4
Protocol: The effectiveness of compounds of the present invention as inhibitors of the coagulation Factors XIa, VIIa, IXa, Xa, XIIa, plasma kallikrein, thrombin, chemytrypsin or trypsin can be determined using a relevant purified serine protease, respectively, and an appropriate synthetic substrate. The rate of hydrolysis of the chromogenic or fluorogenic substrate by the relevant serine protease was measured both in the absence and presence of compounds of the present invention. […] A decrease in the rate of absorbance or fluorescence change in the presence of inhibitor is indicative of enzyme inhibition. Such methods are known to one skilled in the art. The results of this assay are expressed as the inhibitory constant, Ki.
Factor XIa determinations were made in 50 mM HEPES buffer at pH 7.4 containing 145 mM NaCl, 5 mM KCl, and 0.1% PEG 8000 (polyethylene glycol; JT Baker or Fisher Scientific). Determinations were made using purified human Factor XIa at a final concentration of […] (Haematologic Technologies) and the synthetic substrate S-2366 (pyroGlu-Pro-Arg-pNA; CHROMOGENIX® or AnaSpec) at a concentration of 0.0002-0.001 M.
Values of Ki were determined by allowing the protease to react with the substrate in the presence of the inhibitor. Reactions were allowed to go for periods of 20-180 minutes (depending on the protease) and the velocities (rate of absorbance or fluorescence change versus time) were measured. The following relationships were used to calculate Ki values: (Vmax*S)/(Km+S) (vo−vs)/vs=I/(Ki*(1+S/Km)) for a competitive inhibitor with one binding site; or vs/vo=A+(B−A)/(1+(IC50/(I)^n)); and Ki=IC50/(1+S/Km) for a competitive inhibitor where: […]

T1 sequence (P03951 388-625 limits assumed): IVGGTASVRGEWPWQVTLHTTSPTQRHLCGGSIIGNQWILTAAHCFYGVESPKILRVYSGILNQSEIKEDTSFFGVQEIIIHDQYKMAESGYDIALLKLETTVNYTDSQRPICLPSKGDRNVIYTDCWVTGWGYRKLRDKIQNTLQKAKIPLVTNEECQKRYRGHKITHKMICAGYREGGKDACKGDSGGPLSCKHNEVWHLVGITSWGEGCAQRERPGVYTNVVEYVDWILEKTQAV
T1 sequence (P03951 19-387 partner limits assumed): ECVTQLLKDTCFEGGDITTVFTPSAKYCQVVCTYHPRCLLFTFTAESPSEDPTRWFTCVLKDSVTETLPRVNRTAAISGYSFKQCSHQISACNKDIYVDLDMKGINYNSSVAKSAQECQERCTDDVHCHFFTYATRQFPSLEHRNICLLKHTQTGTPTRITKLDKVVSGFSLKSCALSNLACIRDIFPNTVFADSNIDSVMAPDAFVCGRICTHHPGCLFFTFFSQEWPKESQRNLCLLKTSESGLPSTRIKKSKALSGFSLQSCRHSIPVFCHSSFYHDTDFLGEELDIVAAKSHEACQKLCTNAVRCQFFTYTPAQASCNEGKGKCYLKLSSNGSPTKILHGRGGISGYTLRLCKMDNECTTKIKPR

Row | Ki [nM] | Compound
1 | 80.3 | O=C(Nc1ccc2c(c1)CS(=O)(=O)C2)[C@H](Cc1ccccc1)n1cnc(-c2cc(Cl)ccc2-n2cc(Cl)nn2)cc1=O [Example 28, (S)-2-(4-(5-chloro-2-(4-chloro-1H-1,2,3-triazol-1-yl)phenyl)-6-oxopyrimidin-1(6H)-yl)-N-(2,2-dioxido-1,3-dihydrobenzo[c]thiophen-5-yl)-3-phenylpropanamide]
2 | 162 | O=C(Nc1cccc2ncccc12)[C@H](Cc1ccccc1)n1cnc(-c2cc(Cl)ccc2-n2cc(Cl)nn2)cc1=O [Example 29, (S)-2-(4-(5-chloro-2-(4-chloro-1H-1,2,3-triazol-1-yl)phenyl)-6-oxopyrimidin-1(6H)-yl)-3-phenyl-N-(quinolin-5-yl)propanamide]
3 | 10.3 | O=C(Nc1ccc2ncncc2c1)[C@H](Cc1ccccc1)n1cnc(-c2cc(Cl)ccc2-n2cc(Cl)nn2)cc1=O [Example 31, (S)-2-(4-(5-chloro-2-(4-chloro-1H-1,2.3-triazol-1-yl)phenyl)-6-oxopyrimidin-1(6H)-yl)-3-phenyl-N-(quinazolin-6-yl)propanamide]
4 | 341 | Cn1cc(NC(=O)[C@H](Cc2ccccc2)n2cnc(-c3cc(Cl)ccc3-n3cc(Cl)nn3)cc2=O)nn1 [Example 32, (S)-2-(4-(5-chloro-2-(4-chloro-1H-1,2,3-triazol-1-yl)phenyl)-6-oxopyrimidin-1(6H)-yl)-N-(1-methyl-1H-1,2,3-triazol-4-yl)-3-phenylpropanamide]
5 | 37.8 | Cc1nc2ccc(NC(=O)[C@H](Cc3ccccc3)n3cnc(-c4cc(Cl)ccc4-n4cc(Cl)nn4)cc3=O)cc2o1 [Example 33, (S)-2-(4-(5-chloro-2-(4-chloro-1H-1,2,3-triazol-1-yl)phenyl)-6-oxopyrimidin-1(6H)-yl)-N-(2-methylbenzo[d]oxazol-6-yl)-3-phenylpropanamide]
6 | 1660 | CCOC(=O)Cn1ccc(NC(=O)[C@H](Cc2ccccc2)n2cnc(-c3cc(Cl)ccc3-n3cc(Cl)nn3)cc2=O)n1 [Example 34, ethyl (S)-2-(3-(2-(4-(5-chloro-2-(4-chloro-1H-1,2,3-triazol-1-yl)phenyl)-6-oxopyrimidin-1(6H)-yl)-3-phenylpropanamido)-1H-pyrazol-1-yl)acetate]
7 | 4070 | CC1(C)Oc2ccc(NC(=O)[C@H](Cc3ccccc3)n3cnc(-c4cc(Cl)ccc4-n4cc(Cl)nn4)cc3=O)nc2NC1=O [Example 35, (S)-2-(4-(5-chloro-2-(4-chloro-1H-1,2,3-triazol-1-yl)phenyl)-6-oxopyrimidin-1(6H)-yl)-N-(2,2-dimethyl-3-oxo-3,4-dihydro-2H-pyrido[3,2-b][1,4]oxazin-6-yl)-3-phenylpropanamide]
8 | 1340 | O=C(Nc1cnns1)[C@H](Cc1ccccc1)n1cnc(-c2cc(Cl)ccc2-n2cc(Cl)nn2)cc1=O [Example 36, (S)-2-(4-(5-chloro-2-(4-chloro-1H-1,2,3-triazol-1-yl)phenyl)-6-oxopyrimidin-1(6H)-yl)-3-phenyl-N-(1,2,3-thiadiazol-5-yl)propanamide]
9 | 155 | O=C(Nc1ccc(N2CCOCC2=O)cc1)[C@H](Cc1ccccc1)n1cnc(-c2cc(Cl)ccc2-n2cc(Cl)nn2)cc1=O [Example 37, (S)-2-(4-(5-chloro-2-(4-chloro-1H-1,2,3-triazol-1-yl)phenyl)-6-oxopyrimidin-1(6H)-yl)-N-(4-(3-oxomorpholino)phenyl)-3-phenylpropanamide]
10 | 98.4 | O=C1NCc2cc(F)c(NC(=O)[C@H](Cc3ccccc3)n3cnc(-c4cc(Cl)ccc4-n4cc(Cl)nn4)cc3=O)cc21 [Example 38, (S)-2-(4-(5-chloro-2-(4-chloro-1H-1,2,3-triazol-1-yl)phenyl)-6-oxopyrimidin-1(6H)-yl)-N-(6-fluoro-3-oxoisoindolin-5-yl)-3-phenylpropanamide]
11 | 110 | Cc1ncn(-c2ccc(NC(=O)[C@H](Cc3ccccc3)n3cnc(-c4cc(Cl)ccc4-n4cc(Cl)nn4)cc3=O)cn2)n1 [Example 39, (S)-2-(4-(5-chloro-2-(4-chloro-1H-1,2,3-triazol-1-yl)phenyl)-6-oxopyrimidin-1(6H)-yl)-N-(6-(3-methyl-1H-1,2,4-triazol-1-yl)pyridin-3-yl)-3-phenylpropanamide]
12 | 172 | COC(=O)c1cc(NC(=O)[C@H](Cc2ccccc2)n2cnc(-c3cc(Cl)ccc3-n3cc(Cl)nn3)cc2=O)cn1C [Example 40, methyl (S)-4-(2-(4-(5-chloro-2-(4-chloro-1H-1,2,3-triazol-1-yl)phenyl)-6-oxopyrimidin-1(6H)-yl)-3-phenylpropanamido)-1-methyl-1H-pyrrole-2-carboxylate]
13 | 117 | O=C(Nc1ccc(OC2CCOCC2)cc1)[C@H](Cc1ccccc1)n1cnc(-c2cc(Cl)ccc2-n2cc(Cl)nn2)cc1=O [Example 41, (S)-2-(4-(5-chloro-2-(4-chloro-1H-1,2,3-triazol-1-yl)phenyl)-6-oxopyrimidin-1(6H)-yl)-3-phenyl-N-(4-((tetrahydro-2H-pyran-4-yl)oxy)phenyl)propanamide]
14 | 196 | CCOC(=O)c1ccc(NC(=O)[C@H](Cc2ccccc2)n2cnc(-c3cc(Cl)ccc3-n3cc(Cl)nn3)cc2=O)cc1 [Example 42, ethyl (S)-4-(2-(4-(5-chloro-2-(4-chloro-1H-1,2,3-triazol-1-yl)phenyl)-6-oxopyrimidin-1(6H)-yl)-3-phenylpropanamido)benzoate]
15 | 208 | N#Cc1ccc(NC(=O)[C@H](Cc2ccccc2)n2cnc(-c3cc(Cl)ccc3-n3cc(Cl)nn3)cc2=O)cn1 [Example 43, (S)-2-(4-(5-chloro-2-(4-chloro-1H-1,2,3-triazol-1-yl)phenyl)-6-oxopyrimidin-1(6H)-yl)-N-(6-cyanopyridin-3-yl)-3-phenylpropanamide]
16 | 395 | CCn1nc(C)cc1NC(=O)[C@H](Cc1ccccc1)n1cnc(-c2cc(Cl)ccc2-n2cc(Cl)nn2)cc1=O [Example 44, (S)-2-(4-(5-chloro-2-(4-chloro-1H-1,2,3-triazol-1-yl)phenyl)-6-oxopyrimidin-1(6H)-yl)-N-(1-ethyl-3-methyl-1H-pyrazol-5-yl)-3-phenylpropanamide]
17 | 88.2 | COC(=O)Cc1ccc(NC(=O)[C@H](Cc2ccccc2)n2cnc(-c3cc(Cl)ccc3-n3cc(Cl)nn3)cc2=O)cc1 [Example 45, methyl (S)-2-(4-(2-(4-(5-chloro-2-(4-chloro-1H-1,2,3-triazol-1-yl)phenyl)-6-oxopyrimidin-1(6H)-yl)-3-phenylpropanamido)phenyl)acetate]
18 | 8.3 | O=C(Nc1ccc2[nH]cnc2c1)[C@H](Cc1ccccc1)n1cnc(-c2cc(Cl)ccc2-n2cc(Cl)nn2)cc1=O [Example 46, (S)-N-(1H-benzo[d]imidazol-5-yl)-2-(4-(5-chloro-2-(4-chloro-1H-1,2,3-triazol-1-yl)phenyl)-6-oxopyrimidin-1(6H)-yl)-3-phenylpropanamide]
19 | 154 | O=C(Nc1ccc2[nH]ccc2n1)[C@H](Cc1ccccc1)n1cnc(-c2cc(Cl)ccc2-n2cc(Cl)nn2)cc1=O [Example 47, (S)-2-(4-(5-chloro-2-(4-chloro-1H-1,2,3-triazol-1-yl)phenyl)-6-oxopyrimidin-1(6H)-yl)-3-phenyl-N-(1H-pyrrolo[3,2-b]pyridin-5-yl)propanamide]
20 | 6590 | O=C(NCc1nccs1)[C@H](Cc1ccccc1)n1cnc(-c2cc(Cl)ccc2-n2cc(Cl)nn2)cc1=O [Example 50, (S)-2-(4-(5-chloro-2-(4-chloro-1H-1,2,3-triazol-1-yl)phenyl)-6-oxopyrimidin-1(6H)-yl)-3-phenyl-N-(thiazol-2-ylmethyl)propanamide]
